In the supplement of paper PMC10331698:
± gives the standard deviation of the averaged measurements.

Experiments:
Assay in all cases: level (log10 ratio to DMSO vehicle control); higher = higher biomarker level / cell amount than vehicle control
Settings in all cases: in DMSO
[1] = compound: FC(F)(F)C(F)(F)C(F)(F)C(F)(F)C(F)(F)C(F)(F)C(F)(F)C(F)(F)CCS [2-(Perfluorooctyl)ethanthiol]
Protocol: (§1)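 BioMAP Diversity Plus panel of 12 human primary cell co-culture systems (3C, 4H, LPS, SAg, BT, BF4T, BE3C, CASM3C, HDF3CGF, KF3CT, MyoF, Mphg). Compounds were added 1 h before stimulation and left for 24 h (MyoF 48 h; BT 72 h for soluble read-outs or 6 d for IgG). Biomarkers were read by ELISA, cytotoxicity by SRB, PBMC viability and proliferation by Alamar Blue. Each well value was divided by the mean of 8 DMSO control wells on the same plate and log10 transformed; duplicate blinded samples were tested at 4 concentrations.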

[2] = compound: FC(F)(F)C(F)(C(F)(F)F)C(F)(F)C(F)(F)CC1CO1 [3-(Perfluoro-3-methylbutyl)-1,2-propenoxide]
Protocol: as §1

Heptafluorobutyramide = compound: NC(=O)C(F)(F)C(F)(F)C(F)(F)F [Heptafluorobutyramide]
Protocol: as §1

[3] = compound: CCN(CCO)S(=O)(=O)C(F)(F)C(F)(F)C(F)(F)C(F)(F)C(F)(F)C(F)(F)C(F)(F)C(F)(F)F [N-Ethyl-N-(2-hydroxyethyl)perfluorooctanesulfonamide]
Protocol: as §1

[4] = compound: FC(F)(F)C(F)(F)C(F)(F)C(F)(F)C(F)(F)CCI [1-Iodo-1H,1H,2H,2H-perfluoroheptane]
Protocol: as §1

[5] = compound: NCC(F)(F)C(F)(F)C(F)(F)C(F)(F)C(F)(F)C(F)(F)C(F)(F)F [1H,1H-Perfluorooctylamine]
Protocol: as §1

Perfluoroheptanoic acid = compound: O=C(O)C(F)(F)C(F)(F)C(F)(F)C(F)(F)C(F)(F)C(F)(F)F [Perfluoroheptanoic acid]
Protocol: as §1

Test System	level (log10) ([1]; 6700 nM)	level (log10) ([1]; 20000 nM)	level (log10) ([2]; 6700 nM)	level (log10) ([2]; 20000 nM)	level (log10) (Heptafluorobutyramide; 6700 nM)	level (log10) (Heptafluorobutyramide; 20000 nM)	level (log10) (Heptafluorobutyramide; 60000 nM)	level (log10) ([3]; 6700 nM)	level (log10) ([3]; 20000 nM)	level (log10) ([4]; 6700 nM)	level (log10) ([4]; 20000 nM)	level (log10) ([4]; 60000 nM)	level (log10) ([5]; 6700 nM)	level (log10) ([5]; 20000 nM)	level (log10) ([5]; 60000 nM)	level (log10) (Perfluoroheptanoic acid; 6700 nM)	level (log10) (Perfluoroheptanoic acid; 20000 nM)	level (log10) (Perfluoroheptanoic acid; 60000 nM)
KF3CT:uPA	0.006 ± 0.013	0.001 ± 0.016	-0.0045 ± 0.0021	-0.021 ± 0.017	-0.0085 ± 0.022	-0.0215 ± 0.026	-0.006 ± 0.014	0.022 ± 0.0028	-0.0225 ± 0.0021	-0.001 ± 0.034	0.0145 ± 0.022	0.0125 ± 0.00071	-0.017 ± 0.0028	-0.0135 ± 0.0078	-0.0225 ± 0.019	0.007 ± 0.016	0.0065 ± 0.0021	0.0075 ± 0.013
BE3C:uPA	0.0045 ± 0.00071	-0.0085 ± 0.016	0.0005 ± 0.018	0.004 ± 0.021	-0.011 ± 0.02	-0.017 ± 0.024	-0.0145 ± 0.019	-0.0025 ± 0.022	-0.018 ± 0.031	0.013 ± 0.011	-0.0005 ± 0.019	-0.0025 ± 0.033	-0.011 ± 0.011	-0.0135 ± 0.0021	-0.002 ± 0.014	-0.002 ± 0.0042	0.0055 ± 0.0035	0.0255 ± 0.015
MyoF:SRB	-0.0005 ± 0.0092	0.0025 ± 0.0021	0.008 ± 0.0085	0.005 ± 0.0042	-0.011 ± 0.017	-0.0035 ± 0.0078	-0.0005 ± 0.005	-0.0265 ± 0.00071	-0.175 ± 0.07	0.001 ± 0.0099	0.0085 ± 0.015	0.0085 ± 0.025	0.0035 ± 0.0021	-0.002 ± 0.0057	0.0005 ± 0.005	-0.0005 ± 0.00071	0 ± 0.0085	-0.003 ± 0.021
lMphg:CD40	0.0035 ± 0.086	0.017 ± 0.048	-0.0105 ± 0.028	-0.021 ± 0.011	-0.021 ± 0.011	-0.0185 ± 0.037	-0.0025 ± 0.025	-0.025 ± 0.017	-0.0335 ± 0.018	-0.004 ± 0.0042	-0.008 ± 0.013	-0.058 ± 0.02	0.0025 ± 0.005	-0.0125 ± 0.035	-0.069 ± 0.054	-0.0045 ± 0.018	-0.0265 ± 0.012	-0.028 ± 0.027
KF3CT:CXCL10/IP-10	-0.025 ± 0.0042	-0.01 ± 0.0057	-0.009 ± 0.016	-0.026 ± 0.014	0.002 ± 0.0042	0.0015 ± 0.0078	0.005 ± 0.0099	-0.0395 ± 0.022	-0.107 ± 0.015	0.0035 ± 0.00071	0.001 ± 0.013	-0.0185 ± 0.00071	-0.0045 ± 0.00071	-0.0075 ± 0.011	-0.003	-0.003 ± 0.018	0.0125 ± 0.026	0.0155 ± 0.023
